Where a SMILES comes first, the peptide text is derived from it. Bridges are numbered along the chain shown (N, C = ends). [ ]: non-standard residue; d: D form. Tyr(3-F) = N[C@@H](Cc1ccc(O)c(F)c1)C(=O)O; Tyr(3-OMe) = COc1cc(C[C@H](N)C(=O)O)ccc1O; Phe(4-NH2) = Nc1ccc(C[C@H](N)C(=O)O)cc1; Nle = CCCC[C@H](N)C(=O)O

Assay [1] relates to guinea pig tracheal smooth muscle. As to the kind of experiment: Tracheal relaxant activity of VIP analogs on isolated guinea pig tracheal rings. The assay is classed as cell-based. The conditions noted are these: cumulative concentration response, relaxation as % of maximum response to VIP (10^-6 M=100%), three tissues pooled, linear regression. Summed up: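 Male guinea pig tracheal rings under 1.5 g resting tension in Krebs at 37° C, 95% O2/5% CO2, isometric tension. Cumulative concentration-response curves; relaxation as % of response to 10^-6 M VIP added at end; three tissues pooled, EC50 by linear regression.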

In the next assay the test system is guinea pigs. Kind of assay: In vivo bronchodilator activity by tracheal instillation against histamine challenge. Also on record: species or system guinea pig. To be noted: anesthetized male guinea pigs, inhibition of histamine (i.v.)-induced rise in tracheal pressure. Summed up: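 Urethane-anaesthetised male Hartley guinea pigs (400-600 g) received compound in water by intratracheal instillation, then were paralysed, ventilated and challenged with histamine […] i.v. Tracheal pressure change gave % inhibition (≥3 animals/group); ED50 from log dose-response; duration as time until inhibition fell to 40%.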

In turn, `CCCC[C@H](NC(=O)[C@H](CCC(N)=O)NC(=O)[C@H](CCCCN)NC(=O)[C@H](CCCNC(=N)N)NC(=O)[C@H](CC(C)C)NC(=O)[C@H](CCCCN)NC(=O)[C@@H](NC(=O)[C@H](Cc1ccc(O)cc1)NC(=O)[C@H](CC(N)=O)NC(=O)[C@H](CCC(=O)O)NC(=O)[C@@H](NC(=O)[C@H](Cc1ccccc1)NC(=O)[C@@H](NC(=O)[C@H](C)NC(=O)[C@H](CC(=O)O)NC(=O)[C@H](CO)NC(=O)[C@H](Cc1c[nH]cn1)NC(C)=O)C(C)C)[C@@H](C)O)[C@@H](C)O)C(=O)N[C@@H](C)C(=O)N[C@@H](C)C(=O)N[C@@H](CCCCN)C(=O)N[C@H]1CCCCNC(=O)C[C@@H](C(=O)N[C@@H](CC(C)C)C(=O)N[C@@H](CCCCN)C(=O)N[C@@H](CCCCN)C(=O)NCC(=O)NCC(=O)N[C@H](C(N)=O)[C@@H](C)O)NC(=O)[C@H](CC(N)=O)NC(=O)[C@H](CC(C)C)NC(=O)[C@H](Cc2ccc(O)cc2)NC1=O` [SEQ ID NO:52, Ac-[Glu^8,Lys^12,Nle^17,Ala^19,Asp^25,Leu^26,Lys^27,28,Gly^29,30,Thr^31]-VIP cyclo (Lys^21 →Asp^25)] (Ac-HSDAVFTENYTKLRKQ[Nle]AAKKYLNDLKKGGT-NH2; lactam 21-25) gave an EC50 in assay [1] of 350 pM. Also, the “Bronchodilator activity of VIP analogs in guinea pigs, ED50” value (shortened to “Bronchodilator activity of VIP analogs”) in the assay with guinea pigs came out at 0.1 μg.

`CCCC[C@H](NC(=O)[C@H](CCC(N)=O)NC(=O)[C@H](CCCCN)NC(=O)[C@H](CCCNC(=N)N)NC(=O)[C@H](CC(C)C)NC(=O)[C@H](CCCCN)NC(=O)[C@@H](NC(=O)[C@H](Cc1ccc(O)cc1)NC(=O)[C@H](CC(N)=O)NC(=O)[C@H](CCC(=O)O)NC(=O)[C@@H](NC(=O)[C@H](Cc1ccccc1)NC(=O)[C@@H](NC(=O)[C@H](C)NC(=O)[C@H](CC(=O)O)NC(=O)[C@H](C)NC(=O)[C@H](Cc1c[nH]cn1)NC(C)=O)C(C)C)[C@@H](C)O)[C@@H](C)O)C(=O)N[C@@H](C)C(=O)N[C@@H](C)C(=O)N[C@@H](CCCCN)C(=O)N[C@H]1CCCCNC(=O)C[C@@H](C(=O)N[C@@H](CC(C)C)C(=O)N[C@@H](CCCCN)C(=O)N[C@@H](CCCCN)C(N)=O)NC(=O)[C@H](CC(N)=O)NC(=O)[C@H](CC(C)C)NC(=O)[C@H](Cc2ccc(O)cc2)NC1=O` [SEQ ID NO:53, Ac-[Ala^2,Glu^8,Lys^12,Nle^17,Ala^19,Asp^25,Leu^26,Lys^27,28]-VIP cyclo (Lys^21 →Asp^25)] (Ac-HADAVFTENYTKLRKQ[Nle]AAKKYLNDLKK-NH2; lactam 21-25) yielded an EC50 in assay [1] of 780 pM. Moreover, the “Bronchodilator activity of VIP analogs” value in the assay on guinea pigs came out at 0.14 μg.

In turn, `CCCC[C@H](NC(=O)[C@H](CCC(N)=O)NC(=O)[C@H](CCCCN)NC(=O)[C@H](CCCNC(=N)N)NC(=O)[C@H](CC(C)C)NC(=O)[C@H](CCCCN)NC(=O)[C@@H](NC(=O)[C@H](Cc1ccc(N)cc1)NC(=O)[C@H](CC(N)=O)NC(=O)[C@H](CC(=O)O)NC(=O)[C@@H](NC(=O)[C@H](Cc1ccccc1)NC(=O)[C@@H](NC(=O)[C@H](C)NC(=O)[C@H](CC(=O)O)NC(=O)[C@H](CO)NC(=O)[C@H](Cc1c[nH]cn1)NC(C)=O)C(C)C)[C@@H](C)O)[C@@H](C)O)C(=O)N[C@@H](C)C(=O)N[C@@H](C)C(=O)N[C@@H](CCCCN)C(=O)N[C@H]1CCCCNC(=O)C[C@@H](C(=O)N[C@H](C(=O)N[C@@H](CC(C)C)C(=O)N[C@H](C(N)=O)[C@@H](C)O)C(C)C)NC(=O)[C@H](CC(N)=O)NC(=O)[C@H](CC(C)C)NC(=O)[C@H](Cc2ccc(O)cc2)NC1=O` [SEQ ID NO:54, Ac-[p-NH2 -Phe^10,Lys^12,Nle^17,Ala^19,Asp^25,Val^26,Thr^28]-VIP cyclo (Lys^21 →Asp^25)] (Ac-HSDAVFTDN[Phe(4-NH2)]TKLRKQ[Nle]AAKKYLNDVLT-NH2; lactam 21-25) yielded an EC50 in assay [1] of 960 pM. The “Bronchodilator activity of VIP analogs” value with guinea pigs turned out to be 0.35 μg.

Consider `CCCC[C@H](NC(=O)[C@H](CCC(N)=O)NC(=O)[C@H](CCCCN)NC(=O)[C@H](CCCNC(=N)N)NC(=O)[C@H](CC(C)C)NC(=O)[C@H](CCCCN)NC(=O)[C@@H](NC(=O)[C@H](Cc1ccc(O)cc1)NC(=O)[C@H](CC(N)=O)NC(=O)[C@H](CC(=O)O)NC(=O)[C@@H](NC(=O)[C@H](Cc1ccccc1)NC(=O)[C@@H](NC(=O)[C@H](C)NC(=O)[C@H](CC(=O)O)NC(=O)[C@H](CO)NC(=O)[C@H](Cc1c[nH]cn1)NC(C)=O)C(C)C)[C@@H](C)O)[C@@H](C)O)C(=O)N[C@@H](C)C(=O)N[C@@H](C)C(=O)N[C@@H](CCCCN)C(=O)N[C@H]1CCCCNC(=O)C[C@@H](C(=O)N[C@H](C(=O)N[C@@H](CC(C)C)C(=O)N[C@H](C(N)=O)[C@@H](C)O)C(C)C)NC(=O)[C@H](CC(N)=O)NC(=O)[C@H](CC(C)C)NC(=O)[C@H](Cc2ccc(O)c(OC)c2)NC1=O` [SEQ ID NO:55, Ac-[Lys^12,Nle^17,Ala^19,m-OCH3 -Tyr^22,Asp^25,Val^26,Thr^28]-VIP cyclo (Lys^21 →Asp^25)] (Ac-HSDAVFTDNYTKLRKQ[Nle]AAKK[Tyr(3-OMe)]LNDVLT-NH2; lactam 21-25), for which the EC50 in assay [1] is 310 pM. Further, the “Bronchodilator activity of VIP analogs” value with guinea pigs was 0.14 μg.

On to `CCCC[C@H](NC(=O)[C@H](CCC(N)=O)NC(=O)[C@H](CCCCN)NC(=O)[C@H](CCCNC(=N)N)NC(=O)[C@H](CC(C)C)NC(=O)[C@H](CCCCN)NC(=O)[C@@H](NC(=O)[C@H](Cc1ccc(O)cc1)NC(=O)[C@H](CC(N)=O)NC(=O)[C@H](CC(=O)O)NC(=O)[C@@H](NC(=O)[C@H](Cc1ccccc1)NC(=O)[C@@H](NC(=O)[C@H](C)NC(=O)[C@H](CC(=O)O)NC(=O)[C@H](CO)NC(=O)[C@H](Cc1c[nH]cn1)NC(C)=O)C(C)C)[C@@H](C)O)[C@@H](C)O)C(=O)N[C@@H](C)C(=O)N[C@@H](C)C(=O)N[C@@H](CCCCN)C(=O)N[C@H]1CCCCNC(=O)C[C@@H](C(=O)N[C@H](C(=O)N[C@@H](CC(C)C)C(=O)N[C@H](C(N)=O)[C@@H](C)O)C(C)C)NC(=O)[C@H](CC(N)=O)NC(=O)[C@H](CC(C)C)NC(=O)[C@H](Cc2ccc(O)c(F)c2)NC1=O` [SEQ ID NO:56, Ac-[Lys^12,Nle^17,Ala^19,m-F-L-Tyr^22,Asp^25,Val^26,Thr^28]-VIP cyclo (Lys^21 →Asp^25)] (Ac-HSDAVFTDNYTKLRKQ[Nle]AAKK[Tyr(3-F)]LNDVLT-NH2; lactam 21-25), for which the EC50 in assay [1] worked out at 520 pM. Moreover, the “Bronchodilator activity of VIP analogs” value with guinea pigs is on record as 7.2 μg.

Turning to `CCCC[C@H](NC(=O)[C@H](CCC(N)=O)NC(=O)[C@H](CCCCN)NC(=O)[C@H](CCCNC(=N)N)NC(=O)[C@H](CC(C)C)NC(=O)[C@H](CCCCN)NC(=O)[C@@H](NC(=O)[C@H](Cc1ccc(O)cc1)NC(=O)[C@H](CC(N)=O)NC(=O)[C@H](CCC(=O)O)NC(=O)[C@@H](NC(=O)[C@H](Cc1ccccc1)NC(=O)[C@@H](NC(=O)[C@H](C)NC(=O)[C@H](CC(=O)O)NC(=O)[C@H](CO)NC(=O)[C@H](Cc1c[nH]cn1)NC(C)=O)C(C)C)[C@@H](C)O)[C@@H](C)O)C(=O)N[C@@H](C)C(=O)N[C@@H](C)C(=O)N[C@@H](CCCCN)C(=O)N[C@H]1CCCCNC(=O)C[C@@H](C(=O)N[C@@H](CC(C)C)C(=O)N[C@@H](CCCCN)C(=O)N[C@@H](CCCCN)C(N)=O)NC(=O)[C@H](CC(N)=O)NC(=O)[C@H](CC(C)C)NC(=O)[C@H](Cc2ccc(O)c(OC)c2)NC1=O` [SEQ ID NO:57, Ac-[Glu^8,Lys^12,Nle^17,Ala^19,m-OCH3 -Tyr^22,Asp^25,Leu^26,Lys^27,28]-VIP cyclo (Lys^21 →Asp^25)] (Ac-HSDAVFTENYTKLRKQ[Nle]AAKK[Tyr(3-OMe)]LNDLKK-NH2; lactam 21-25), in assay [1], a half-maximal effect (EC50) was put at 290 pM. Also, the “Bronchodilator activity of VIP analogs” value with guinea pigs came out at 0.019 μg.

As to `CCCC[C@H](NC(=O)[C@H](CCC(N)=O)NC(=O)[C@H](CCCCN)NC(=O)[C@H](CCCNC(=N)N)NC(=O)[C@H](CC(C)C)NC(=O)[C@H](CCCCN)NC(=O)[C@@H](NC(=O)[C@H](Cc1ccc(O)cc1)NC(=O)[C@H](CC(N)=O)NC(=O)[C@H](CCC(=O)O)NC(=O)[C@@H](NC(=O)[C@H](Cc1ccccc1)NC(=O)[C@@H](NC(=O)[C@H](C)NC(=O)[C@H](CC(=O)O)NC(=O)[C@H](CO)NC(=O)[C@H](Cc1c[nH]cn1)NC(C)=O)C(C)C)[C@@H](C)O)[C@@H](C)O)C(=O)N[C@@H](C)C(=O)N[C@@H](C)C(=O)N[C@@H](CCCCN)C(=O)N[C@H]1CCCCNC(=O)C[C@@H](C(=O)N[C@@H](CC(C)C)C(=O)N[C@@H](CCCCN)C(=O)N[C@@H](CCCCN)C(N)=O)NC(=O)[C@H](CC(N)=O)NC(=O)[C@H](CC(C)C)NC(=O)[C@H](Cc2ccc(O)c(F)c2)NC1=O` [SEQ ID NO:58, Ac-[Glu^8,Lys^12,Nle^17,Ala^19,m-F-L-Tyr^22,Asp^25,Leu^26,Lys^27,28]-VIP cyclo (Lys^21 →Asp^25)] (Ac-HSDAVFTENYTKLRKQ[Nle]AAKK[Tyr(3-F)]LNDLKK-NH2; lactam 21-25), in assay [1], a half-maximal response (EC50) required 310 pM. For the same compound, the “Bronchodilator activity of VIP analogs” value in the assay with guinea pigs was 0.03 μg.

As to `CCCC[C@H](NC(=O)[C@H](CCC(N)=O)NC(=O)[C@H](CCCCN)NC(=O)[C@H](CCCNC(=N)N)NC(=O)[C@H](CC(C)C)NC(=O)[C@H](CCCCN)NC(=O)[C@@H](NC(=O)[C@H](Cc1ccc(O)cc1)NC(=O)[C@H](CC(N)=O)NC(=O)[C@H](C)NC(=O)[C@@H](NC(=O)[C@H](Cc1ccccc1)NC(=O)[C@@H](NC(=O)[C@H](C)NC(=O)[C@H](CC(=O)O)NC(=O)[C@H](CO)NC(=O)[C@H](Cc1c[nH]cn1)NC(C)=O)C(C)C)[C@@H](C)O)[C@@H](C)O)C(=O)N[C@@H](C)C(=O)N[C@@H](C)C(=O)N[C@@H](CCCCN)C(=O)N[C@H]1CCCCNC(=O)C[C@@H](C(=O)N[C@@H](CC(C)C)C(=O)N[C@@H](CCCCN)C(=O)N[C@@H](CCCCN)C(N)=O)NC(=O)[C@H](C)NC(=O)[C@H](CC(C)C)NC(=O)[C@H](Cc2ccc(O)cc2)NC1=O` [SEQ ID NO:59, Ac-[Ala^8,Lys^12,Nle^17,Ala^19,Ala^24,Asp^25,Leu^26,Lys^27,28]-VIP cyclo (Lys^21 →Asp^25)] (Ac-HSDAVFTANYTKLRKQ[Nle]AAKKYLADLKK-NH2; lactam 21-25), the response in assay [1] was half-maximal at 1100 pM (EC50). The “Bronchodilator activity of VIP analogs” value in the assay on guinea pigs is recorded as 0.17 μg.

The values are drawn from US5677419A, “Cyclic vasoactive peptide analogs” (Hoffmann-La Roche Inc., priority 1994, dated 1997).
